The values below come from patent US7538216B2, “Guanidino phenylalanin compounds used as urokinase inhibitors” (Wilex AG, priority 2002, dated 2009).

Structures can show the parent of a compound that is named as a salt. A value given as a limit tells only on which side of the number the result lay.

What all share (assay type): biochemical
One assay concerns the target T1, sc-urokinase (Homo sapiens, UniProt P00749).
T1 construct: purchased Ribosepharm GmbH, Haan, Germany
Nature of the assay: In-vitro inhibition of urokinase (chromogenic substrate, Dixon). To be noted: 25° C, pH 8.0; mean of at least 3 determinations. The procedure:
(§1) In order to determine the activity of the inhibitor, 200 μl of Tris buffer (0.05 mol/l, containing the inhibitor, 0.154 mol of NaCl/l, 5% ethanol, pH 8.0), 25 μl of substrate (Pefachrome UK or Bz-βAla-Gly-Arg-pNA in H2O; Pentapharm Ltd., Basle, Switzerland) and 50 μl of sc-urokinase (Ribosepharm GmbH, Haan, Germany) were incubated at 25° C. After 3 min, the reaction was terminated by adding 25 μl of acetic acid (50%) and the absorption was determined at 405 nm using a Microplate Reader (MR 5000, Dynatech, Denkendorf, Germany). The Ki values were determined in accordance with Dixon by means of linear regression using a computer program. The Ki values are the means of at least 3 determinations; the standard deviation was less than 25%.

The target in a further assay is T2, plasmin (Homo sapiens, UniProt P00747).
T2 construct: uPA mediates the proteolytic cleavage of plasminogen to give plasmin
Nature of the assay: In-vitro inhibition of serine proteases of the trypsin type: plasmin. Here is the method: as §1
(§2) The inhibitory effect for the enzymes employed was determined in accordance with the principle described in Example 3.

A further assay deals with thrombin (Homo sapiens, UniProt P00734). Nature of the assay: In-vitro inhibition of serine proteases of the trypsin type: thrombin. The procedure: as §1, §2

T2 sequence (P00747 581-810 limits assumed, species assumed): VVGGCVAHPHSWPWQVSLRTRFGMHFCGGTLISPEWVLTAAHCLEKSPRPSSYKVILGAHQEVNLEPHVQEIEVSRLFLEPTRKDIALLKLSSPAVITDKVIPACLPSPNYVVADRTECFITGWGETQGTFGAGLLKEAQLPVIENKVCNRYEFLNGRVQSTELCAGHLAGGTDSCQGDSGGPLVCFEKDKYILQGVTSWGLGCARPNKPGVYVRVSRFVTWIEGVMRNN
T2 sequence (P00747 97-580 partner limits assumed, species assumed): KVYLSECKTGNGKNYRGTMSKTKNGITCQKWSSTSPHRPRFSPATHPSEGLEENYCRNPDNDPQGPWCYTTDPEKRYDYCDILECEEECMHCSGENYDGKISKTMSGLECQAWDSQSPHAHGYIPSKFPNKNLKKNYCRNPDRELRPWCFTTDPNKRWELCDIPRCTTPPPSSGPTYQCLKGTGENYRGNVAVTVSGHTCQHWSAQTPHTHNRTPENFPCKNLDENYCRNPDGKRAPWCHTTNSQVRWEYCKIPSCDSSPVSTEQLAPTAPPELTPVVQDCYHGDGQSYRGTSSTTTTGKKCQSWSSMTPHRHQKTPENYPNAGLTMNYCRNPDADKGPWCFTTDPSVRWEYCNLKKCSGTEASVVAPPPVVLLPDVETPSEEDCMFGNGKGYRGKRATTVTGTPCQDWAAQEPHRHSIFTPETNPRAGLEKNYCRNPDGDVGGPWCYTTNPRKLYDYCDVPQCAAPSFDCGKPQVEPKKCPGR

In general, Ki refers to the equilibrium dissociation constant of an inhibitor or competing ligand from its target. The low end stands for a stronger hold on the target, the high end for a looser hold on the target. As for `CCOC(=O)N1CCN(C(=O)[C@H](Cc2cccc(NC(=N)N)c2)NS(=O)(=O)c2c(C(C)C)cc(C(C)C)cc2C(C)C)CC1` [Example 1, Nα-2,4,6-triisopropylphenylsulfonyl-3-guanidino-(L)-phenylalanine-4-ethoxycarbonylpiperazine hydrochloride], the inhibition constant (Ki) is 0.47 µM at sc-urokinase, 3.8 µM on plasmin and at least 12 µM on thrombin.
